ChEMBL document CHEMBL5653631, “A Potent and Selective ULK1 Inhibitor Suppresses Autophagy and Sensitizes Cancer Cells to Nutrient Stress” (iScience, 2018)

How the values were obtained:
[1] = target: T1, Mitogen-activated protein kinase kinase kinase kinase 2 (Homo sapiens) (UniProt Q12851); experiment: Inhibition of human recombinant GCK at 15 nM related to control ULK1
T1 sequence (whole entry): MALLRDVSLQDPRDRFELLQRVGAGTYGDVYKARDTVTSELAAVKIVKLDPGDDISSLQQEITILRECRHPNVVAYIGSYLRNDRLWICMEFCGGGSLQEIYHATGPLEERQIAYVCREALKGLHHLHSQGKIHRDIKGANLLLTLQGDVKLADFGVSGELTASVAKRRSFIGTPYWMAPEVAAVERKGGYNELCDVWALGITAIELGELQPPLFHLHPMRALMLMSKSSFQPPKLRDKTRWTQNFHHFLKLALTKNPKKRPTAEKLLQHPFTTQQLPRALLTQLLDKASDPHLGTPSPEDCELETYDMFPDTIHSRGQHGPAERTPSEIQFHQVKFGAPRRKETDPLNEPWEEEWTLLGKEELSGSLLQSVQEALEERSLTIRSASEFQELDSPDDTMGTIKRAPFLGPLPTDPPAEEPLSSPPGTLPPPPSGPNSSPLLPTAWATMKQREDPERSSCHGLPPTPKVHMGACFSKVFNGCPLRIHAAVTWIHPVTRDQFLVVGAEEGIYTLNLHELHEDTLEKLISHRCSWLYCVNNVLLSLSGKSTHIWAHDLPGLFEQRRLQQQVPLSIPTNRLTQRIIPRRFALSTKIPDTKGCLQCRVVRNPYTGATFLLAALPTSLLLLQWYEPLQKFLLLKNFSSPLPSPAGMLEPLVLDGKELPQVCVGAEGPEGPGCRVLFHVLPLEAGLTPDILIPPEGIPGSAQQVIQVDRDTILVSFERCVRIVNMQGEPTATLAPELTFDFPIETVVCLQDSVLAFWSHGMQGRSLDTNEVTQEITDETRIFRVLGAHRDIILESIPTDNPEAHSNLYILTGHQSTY

[2] = target: T2, Dual specificity protein kinase TTK (Homo sapiens) (UniProt P33981); experiment: Inhibition of human recombinant TTK at 15 nM related to control ULK1
T2 sequence (whole entry): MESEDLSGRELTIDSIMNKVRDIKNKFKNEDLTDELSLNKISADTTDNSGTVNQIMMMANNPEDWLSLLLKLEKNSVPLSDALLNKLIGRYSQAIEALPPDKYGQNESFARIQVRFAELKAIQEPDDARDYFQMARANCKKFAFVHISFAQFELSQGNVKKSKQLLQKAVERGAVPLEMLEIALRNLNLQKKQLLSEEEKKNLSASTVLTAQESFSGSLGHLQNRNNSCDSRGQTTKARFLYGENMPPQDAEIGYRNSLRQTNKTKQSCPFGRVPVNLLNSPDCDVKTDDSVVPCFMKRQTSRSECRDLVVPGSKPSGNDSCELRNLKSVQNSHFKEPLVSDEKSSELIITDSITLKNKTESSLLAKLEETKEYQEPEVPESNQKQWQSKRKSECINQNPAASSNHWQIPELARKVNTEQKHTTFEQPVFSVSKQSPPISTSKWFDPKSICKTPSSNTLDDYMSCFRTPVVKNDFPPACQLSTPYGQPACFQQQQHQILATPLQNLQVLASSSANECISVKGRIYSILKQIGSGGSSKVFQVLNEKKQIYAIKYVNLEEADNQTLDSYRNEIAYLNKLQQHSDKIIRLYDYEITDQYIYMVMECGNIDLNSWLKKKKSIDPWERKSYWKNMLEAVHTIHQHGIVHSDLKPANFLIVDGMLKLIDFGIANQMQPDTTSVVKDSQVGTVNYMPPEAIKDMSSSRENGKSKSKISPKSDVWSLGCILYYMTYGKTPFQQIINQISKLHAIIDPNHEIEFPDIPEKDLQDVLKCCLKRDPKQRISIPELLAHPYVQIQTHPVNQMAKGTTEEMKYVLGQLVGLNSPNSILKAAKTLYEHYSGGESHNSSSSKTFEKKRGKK

[3] = target: T3, Serine/threonine-protein kinase PLK4 (Homo sapiens) (UniProt O00444); experiment: Inhibition of human recombinant PLK4 at 500 nM in presence of ATP by radiometric assay relative to control
T3 sequence (whole entry): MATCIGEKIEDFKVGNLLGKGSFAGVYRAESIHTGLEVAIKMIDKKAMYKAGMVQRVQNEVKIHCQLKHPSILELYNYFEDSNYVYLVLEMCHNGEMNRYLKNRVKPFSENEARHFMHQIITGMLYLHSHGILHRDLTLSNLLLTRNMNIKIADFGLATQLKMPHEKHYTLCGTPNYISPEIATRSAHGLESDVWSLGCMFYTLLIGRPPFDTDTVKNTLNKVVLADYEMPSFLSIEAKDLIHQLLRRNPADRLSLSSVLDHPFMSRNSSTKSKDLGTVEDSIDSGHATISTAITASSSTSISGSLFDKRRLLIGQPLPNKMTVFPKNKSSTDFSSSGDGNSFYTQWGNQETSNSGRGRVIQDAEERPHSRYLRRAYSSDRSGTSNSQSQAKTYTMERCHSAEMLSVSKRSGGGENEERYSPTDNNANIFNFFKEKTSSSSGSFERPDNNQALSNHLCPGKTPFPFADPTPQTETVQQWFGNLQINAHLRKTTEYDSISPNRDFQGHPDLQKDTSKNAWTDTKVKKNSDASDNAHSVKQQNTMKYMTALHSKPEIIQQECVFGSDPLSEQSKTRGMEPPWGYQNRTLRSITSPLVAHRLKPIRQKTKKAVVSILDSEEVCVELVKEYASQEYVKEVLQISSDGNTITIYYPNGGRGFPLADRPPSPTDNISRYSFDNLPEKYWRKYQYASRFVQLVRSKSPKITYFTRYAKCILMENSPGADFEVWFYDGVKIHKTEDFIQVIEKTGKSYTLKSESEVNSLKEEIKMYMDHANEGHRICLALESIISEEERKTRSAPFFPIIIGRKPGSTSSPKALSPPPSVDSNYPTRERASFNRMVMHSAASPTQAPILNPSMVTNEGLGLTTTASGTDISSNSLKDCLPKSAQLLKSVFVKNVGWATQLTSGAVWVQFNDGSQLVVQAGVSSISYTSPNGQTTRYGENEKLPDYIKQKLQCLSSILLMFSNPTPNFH

Row | Compound | fold change (FC) [1] | fold change (FC) [2] | inhibition [3] [%]
1 | CC(C)[C@H](NC(=O)c1cc(-c2cnn3cc(-c4ccc(OCCN5CCCCC5)cc4)cnc23)cs1)C(F)(F)F | 0.39 | 0.25 | 
2 | CNC(=O)c1ccccc1Oc1nc(Nc2cc(OC)c(OC)c(OC)c2)ncc1Br |  |  | 46
